Measurements reported in ChEMBL document CHEMBL4382251, “A Pair of Enantiomeric Bis- seco-abietane Diterpenoids from Cryptomeria fortunei” (J Nat Prod, 2018).
pIC50: −log10 of the molar value.

How the values were obtained:
Type in all cases: functional, cell-based
HL-60 = assay: Antiproliferative activity against human HL60 cells after 72 hrs by CCK8 assay; conditions: HL-60, 72 h
A549 = assay: Antiproliferative activity against human A549 cells after 72 hrs by sulforhodamine B assay; conditions: A549, 72 h
SGC-7901 = assay: Antiproliferative activity against human SGC7901 cells after 72 hrs by sulforhodamine B assay; conditions: SGC-7901, 72 h

With `CC(=O)Oc1cc2c(CC[C@H](O)C(C)(C)O)c(C)ccc2cc1C(C)C` as the molecule, how does the pIC50 (HL-60) read?
Its pIC50 is 4.66.

And the pIC50 (A549)?
The pIC50 was 4.30.

What about the pIC50 (SGC-7901) of the same molecule?
Its pIC50 is 4.34.

How did the pIC50 (HL-60) turn out when `Cc1ccc(/C=C(\C(=O)O)C(C)C)c2c1CC[C@H](C(C)(C)O)OC2=O` was run?
Its pIC50 is < 4.00.

And the pIC50 (A549)?
Its pIC50 is < 4.00.

What about the pIC50 (SGC-7901) of the same molecule?
Its pIC50 is < 4.00.

With `Cc1ccc2cc(C(C)C)c(O)cc2c1CC[C@@H]1OC(C)(C)OC1(C)C` as the molecule, how does the pIC50 (HL-60) read?
The pIC50 was 4.34.

What about the pIC50 (A549) of the same molecule?
Its pIC50 is 4.58.

What about the pIC50 (SGC-7901) of the same molecule?
The pIC50 was 4.50.

With `Cc1ccc(/C=C(\C(=O)O)C(C)C)c2c1CC[C@@H](C(C)(C)O)OC2=O` as the molecule, how does the pIC50 (HL-60) read?
Its pIC50 is < 4.00.

What about the pIC50 (A549) of the same molecule?
The pIC50 was < 4.00.

And the pIC50 (SGC-7901)?
The pIC50 was < 4.00.

What does the source list for `CC(=O)Oc1cc2c(CC[C@@H](O)C(C)(C)O)c(C)ccc2cc1C(C)C`?
pIC50 (HL-60): 4.39; pIC50 (A549): 4.31; pIC50 (SGC-7901): 4.32

Which results are given for `Cc1ccc2cc(C(C)C)c(O)cc2c1CC[C@H]1OC(C)(C)OC1(C)C`?
pIC50 (HL-60): 4.31; pIC50 (A549): 4.63; pIC50 (SGC-7901): 4.48

With `CC(=O)Oc1cc2c(CC[C@H]3OC(C)(C)OC3(C)C)c(C)ccc2cc1C(C)C` as the molecule, how does the pIC50 (HL-60) read?
The pIC50 was 4.76.

What about the pIC50 (A549) of the same molecule?
Its pIC50 is 4.54.

What about the pIC50 (SGC-7901) of the same molecule?
The pIC50 was 4.44.

What does the source list for `COc1cc2c(cc1C(C)C)C(=O)C=C1C(C)(C)CCCC12C` (single isomer, unassigned)?
pIC50 (HL-60): < 4.00; pIC50 (A549): < 4.00; pIC50 (SGC-7901): < 4.00

How did the pIC50 (HL-60) turn out when `CC(=O)Oc1cc2c(CC[C@@H]3OC(C)(C)OC3(C)C)c(C)ccc2cc1C(C)C` was run?
Its pIC50 is 4.80.

And the pIC50 (A549)?
The pIC50 was 4.16.

What about the pIC50 (SGC-7901) of the same molecule?
Its pIC50 is 4.05.

What does the source list for `CC(=O)Oc1cc2c(CCC=C(C)C)c(C)ccc2cc1C(C)C`?
pIC50 (HL-60): 4.68; pIC50 (A549): 4.59; pIC50 (SGC-7901): 4.46

How did the pIC50 (HL-60) turn out when `CC(=O)Oc1cc2c(cc1C(C)C)C(=O)C=C1C(C)(C)CCCC12C` (single isomer, unassigned) was run?
Its pIC50 is 4.59.

And the pIC50 (A549)?
Its pIC50 is 4.57.

And the pIC50 (SGC-7901)?
The pIC50 was 4.64.
